Data on one compound can be found in article PMC6270106, “Chemical Constituents from the Leaves of Annona reticulata and Their Inhibitory Effects on NO Production” (Molecules, 2013).

One may read the inhibition as the change of the read-out against control, counted positive when it falls. The IC50 is the midpoint of a concentration-inhibition curve. Low values mean greater potency in that assay, high ones weaker potency in that assay.

Data set [1] has as its system LPS-induced iNOS-dependent NO production in RAW 264.7 cells. Kind of data set: Inhibition of LPS-induced iNOS-dependent NO production (Griess nitrite assay). Format: cell-based, murine. Particulars: RAW 264.7, 100 ng/mL LPS, 24 h; for NO level: nitrite by Griess, in µM (unit assumed). The text has this:
The isolated compounds 1–9 were subjected into the examination of their effects on LPS-induced iNOS-dependent NO production in RAW 264.7 cells. […] The inhibitory effects of 1, 4 and 9 were less obvious. […] Among the tested compounds, 2, and 5–8 belonged to the ent-kaurane diterpenoids noted for the occurrence in the Annona species.
NO production was indirectly assessed by measuring the nitrite levels in the cultured media and serum determined by a colorimetric method based on the Griess reaction. The cells were incubated with a test sample in the presence of LPS (100 ng/mL) at 37 °C for 24 h. Then, cells were dispensed into 96-well plates, and 100 μL of each supernatant was mixed with the same volume of Griess reagent (1% sulfanilamide, 0.1% naphthyl ethylenediamine dihydrochloride, and 5% phosphoric acid) and incubated at room temperature for 10 min, the absorbance was measured at 540 nm with a Micro-Reader (Molecular Devices). By using sodium nitrite to generate a standard curve, the concentration of nitrite was measured form absorbance at 540 nm.
Experimental results were presented as the mean ± standard deviation (SD) of three parallel measurements. Statistical comparisons were made by Student’s t-test. IC50 values were estimated using a non-linear regression algorithm (SigmaPlot 8.0; SPSS Inc. Chicago, IL, USA). Statistical significance is expressed as * p < 0.05, ** p < 0.01, and *** p < 0.001.

A further data set relates to macrophages. Further details: method as in PMID 23333629. To be noted: by interfering with the activation of TAK1 and Akt, preventing NF-κB activation; cited from earlier work.
The next data set deals with RAW 264.7 cells. The data set is described as follows: Cell viability (MTT) in the presence of LPS. Particulars: RAW 264.7, 100 ng/mL LPS, 24 h, MTT.

Consider `CC1(C)CC[C@]2(C)CC=C3[C@]4(C)CC[C@H]5C(C)(C)[C@@H](O)CC[C@]5(C)[C@H]4CC[C@@]3(C)[C@@H]2C1` [Compound 3, taraxerol], for which the NO level in data set [1] (12.5 μM) amounted to 38.5 ± 2.3; in data set [1] (25 μM) it was 39.5 ± 0.6; in data set [1] (50 μM), 35.6 ± 0.9; in data set [1] (100 μM), 22.6 ± 0.4. The inhibition at 12.5 µM in data set [1] (Mus musculus, RAW264.7, 12.5 μM, read-out: NO inhibition (% of control)) was determined as 15.2 ± 5%. For the same compound, the inhibition at 25 µM in data set [1] (Mus musculus, RAW264.7, 25 μM, read-out: NO inhibition (% of control) (converted)) is 13.1%. Moreover, the inhibition at 50 µM in data set [1] (Mus musculus, RAW264.7, 50 μM, read-out: NO inhibition (% of control) (converted)) was 21.6%. The inhibition at 100 µM in data set [1] (Mus musculus, RAW264.7, 100 μM, read-out: NO inhibition (% of control) (converted)) was 50.1%. Further, inhibition in data set [1] (Mus musculus, RAW264.7) was half-maximal at 99.8 ± 0.4 µM (IC50). Moreover, in the data set with macrophages, the “Expression of proinflammatory mediators (in words)” value is recorded as “downregulate the expression of proinflammatory mediators”. Also, the “Cell viability (% of control)” value with RAW 264.7 cells (12.5 μM) was 93.5 ± 1.8 % of control; with RAW 264.7 cells (25 μM), 92.6 ± 3.1 % of control; in the data set with RAW 264.7 cells (50 μM), 88.7 ± 1.8 % of control; in the data set on RAW 264.7 cells (100 μM) it was 81.4 ± 2.3 % of control.
